Experimental data: patent US20090061022A1, “Pharmaceutical composition comprising arsenite for the treatment of malignancy” (priority 2004, published 2009)

Assay: Maximum tolerated dose assessment after daily oral administration for 14 days in the pig
Assay type: in vivo, pigs (large white×landrace×pietrain)
Description: The aims of this study were to establish a MTD and the kinetics of sodium meta-arsenite after repeated administration to pigs.
Sodium meta-arsenite was formulated using enteric-coated capsules (size no. 2) for a toxicology study in pigs. Cellulose-based clear capsules contained 1) sodium meta-arsenite as an active ingredient, 2) microcrystalline cellulose and colloidal silicon dioxide as excipients. The coating material of the capsules comprised of Eudragit L 12.5 (acrylic polymer) and Macrogol 6000 (polyethylene glycol as softener). It is resistant to gastric fluid at least for 1 hour.
The oral route was selected, as it is the intended route of administration in human. Based on previous studies, the following doses were selected: 7.5 and 10 mg/pig (equivalent to 24.5 and 32.5 mg/man). Capsules (enteric coated, size no. 2) of sodium meta-arsenite in concentrations of 7.5 and 10 mg/capsule, formulations, were stored in a refrigerator in the dark. Each dose was administered orally by gavages to groups of 12 male growing pigs (large white×landrace×pietrain) for 14 days, followed by a 14-day recovery period. The mean weight of the pigs was 16.8±2.3 kg at the beginning of the study.
Mortality and viability were checked twice daily, clinical examinations were performed daily and body weight was recorded twice a week. Scheduled termination was performed on day 29 (after 14 days of recovery). Macroscopic examination was performed on all animals and samples from brain (cerebellum, mid brain, cortex), heart, kidney, liver, lung, spleen, stomach wall, small intestine and large intestine taken for histopathology.
Blood samples (10 ml) of both dose groups were collected for hematology and biochemistry analysis on days −2, −1, 0, 7, 14, 21, 28. The samples collected during the treatment period were taken prior to the administration of the next drug. […]

O=[As][O-].[Na+] [Sodium meta-arsenite, sodium meta-arsenite]
Hematological and biochemical parameters (7.5 and 10 mg/pig, 14 days): No (statistical) significant differences
Mortality (7.5 and 10 mg/pig, enteric-coated capsules, 14 days + 14-day recovery): No pigs died or were killed in extremis
Drug related side effects (pigs at the doses of 7.5 and 10 mg/day): did not induce any drug related side effects
